Measurements from the NIST ThermoML archive (doi:10.1016/j.jct.2015.05.028).

Assay: mn = molality of the nth substance listed, in mol/kg
Details: 99.6 kPa, Liquid, Vibrating tube method

CCN1C(=O)N(CC)C2NC(=O)NC21 (stereo not given) + O
mass density [kg/m3]
Details	278.15 K	288.15 K	298.15 K	308.15 K	318.15 K
m1 = 0.01158	1000.48	999.594	997.533	994.508	990.681
m1 = 0.01315	1000.54	999.667	997.589	994.565	990.747
m1 = 0.01794	1000.76	999.871	997.801	994.774	990.935
m1 = 0.02385	1001.02	1000.12	998.052	995.029	991.185
m1 = 0.02832	1001.21	1000.32	998.231	995.196	991.363
m1 = 0.03477	1001.5	1000.6	998.521	995.477	991.629
m1 = 0.04062	1001.76	1000.85	998.752	995.71	991.866
m1 = 0.04476	1001.95	1001.03	998.934	995.885	992.035
m1 = 0.04841	1002.11	1001.18	999.081	996.03	992.176
m1 = 0.0537	1002.35	1001.42	999.318	996.256	992.398
m1 = 0.05905	1002.58	1001.63	999.528	996.468	992.605
m1 = 0.06432	1002.81	1001.87	999.742	996.678	992.818
m1 = 0.06647	1002.9	1001.96	999.836	996.759	992.893
m1 = 0.06907	1003.01	1002.07	999.94	996.876	993.011
